# Assay results published in ChEMBL document CHEMBL3507680, “University of Dundee, Gates Library screen for HepG2 cell viability”.
# Experiment: Human HepG2 cell viability assay in 384 well format
# Format: toxicity, cell-based
# Design: dose 125 nL, time 70.5 hour; concentration not given beside the values
# Details: HepG2 cells, read-out: Inhibition
row,SMILES,cytotoxicity at 70.5 h [%]
1,CC(=O)Nc1nc(-c2ccccc2)c[nH]1,3.67
2,CCC1CCCCCN1C(=O)c1nnc2ccccc2c1N (stereo not drawn),-2.66
3,CCCS(=O)(=O)N1CCN(c2cc(-n3cccc3)nc(C)n2)CC1,-5.53
4,CC(=O)OC1CN(c2nc3c(C(F)(F)F)cccc3s2)C1,-11.8
5,CC(=O)N1CCC(CSCc2ccco2)CC1,12.9
6,O=C(c1ccco1)N1CCC(CSCc2ccco2)CC1,-7.2
7,O=C(c1ccccn1)N1CCC(Oc2cccnc2)CC1,-8.37
8,COCCc1noc(C2CCN(S(=O)(=O)c3cccs3)CC2)n1,10.6
9,COc1c2ccc(C(=O)NCCCn3ncccc3=O)cc2nn1C,13.9
10,CC(=O)N1CCc2[nH]c(=O)ccc2C1,-6.79
11,CN(C)CC1CSCCCN1C(=O)c1ccc(-n2cccc2)cc1 (stereo not drawn),-4.81
12,CN(C)CC1CSCCCN1C(=O)c1ccc(-c2ccccc2)cc1 (stereo not drawn),-0.605
13,CN(C)c1cccc(C(=O)N2CCCSCC2CN2CCCC2)c1 (stereo not drawn),3.97
14,N#Cc1ccc(C(=O)N2CCCSCC2CN2CCCC2)cc1 (stereo not drawn),-5.18
15,COc1cccc(OCC(=O)N2CCCSCC2CN2CCOCC2)c1 (stereo not drawn),14.1
16,Cc1cccnc1NC(=O)C1CSc2ncc(C)c(=O)n2C1 (stereo not drawn),-2.04
17,CC(C)(C)c1cc(=O)n2c(n1)SCC(C(=O)NCc1cccs1)C2 (stereo not drawn),0.387
18,COc1cc(C(=O)NCCCc2ccccc2)on1,-1.09
19,O=C(Cn1c(=O)oc2ccccc21)NCC(O)c1ccc2c(c1)CCO2 (stereo not drawn),-2.64
20,Cc1noc(C)c1S(=O)(=O)NCC(O)c1ccc2c(c1)CCO2 (stereo not drawn),17.6
21,COc1nn(C)cc1C(=O)NCC1(O)CCc2ccccc2C1 (stereo not drawn),-5.25
22,COCCN(Cc1ccoc1)C(=O)c1ccccc1OC,-1.89
23,COCCN(Cc1ccoc1)C(=O)c1ccc(Cl)s1,-6.8

row,SMILES,cytotoxicity at 70.5 h [%]
1,CCSc1ccccc1C(=O)N(CCOC)Cc1ccoc1,25
2,COCCN(Cc1ccoc1)S(=O)(=O)c1ccc(OC)c(Cl)c1,-20.8
3,CCOC(=O)NCCC(O)c1ccoc1 (stereo not drawn),-11.9
4,Cc1cc(C(O)CCNC(=O)COc2ccccc2F)c(C)o1 (stereo not drawn),-0.424
5,Cc1cc(C(O)CCNS(=O)(=O)c2ccc(Cl)s2)c(C)o1 (stereo not drawn),-15.4
6,COC1(CNC(=O)c2ccoc2)CCSC1 (stereo not drawn),-11
7,COc1ccc(OC)c(S(=O)(=O)NCC2(OC)CCSC2)c1 (stereo not drawn),-7.48
8,COC1(CNS(=O)(=O)c2ccccc2Br)CCSC1 (stereo not drawn),-4.04
9,COc1ccc(C(=O)Nc2ccccc2-c2ccc(=O)n(C)n2)cc1,3.05
10,Cn1nc(-c2ccccc2NC(=O)c2cncc(Br)c2)ccc1=O,15.4
11,O=C(NCC(F)(F)F)c1ccc(-n2cncn2)nn1,1.36
12,Cc1ccc(C(=O)NCCn2nc(-n3cncn3)ccc2=O)c(C)c1,29.8
13,CS(=O)(=O)C1CCN(S(=O)(=O)c2ccc(F)c(F)c2)C1 (stereo not drawn),-5.07
14,CS(=O)(=O)C1CCN(S(=O)(=O)Cc2cccc(F)c2)CC1,0.12
15,CS(=O)(=O)C1CCN(S(=O)(=O)c2ccc(F)c(F)c2)CC1,1.4
16,O=C(CN1C(=O)CCC1=O)N1Cc2cncnc2C1,-2.85
17,CS(=O)(=O)N1CCCC1CS(=O)(=O)c1ccccc1 (stereo not drawn),-11.6
18,O=S(=O)(CC1CCCN1S(=O)(=O)C1CC1)c1ccccc1 (stereo not drawn),-6.46
19,Cc1cc(CNC(=O)c2cnoc2C)c(C)o1,-12
20,Cn1cnc(S(=O)(=O)NCC(O)c2ccc3c(c2)CCO3)c1 (stereo not drawn),-16.8
21,Cn1cnc(S(=O)(=O)NCCC(O)c2ccc3c(c2)OCO3)c1 (stereo not drawn),20.5
22,CN(C)C(=O)Cc1ccc(NC(=O)c2cn(C)nn2)cc1,-4.9
23,Cc1nsc(C(=O)NCCc2ccc(S(N)(=O)=O)cc2)n1,-5.58

row,SMILES,cytotoxicity at 70.5 h [%]
1,Cc1nsc(C(=O)NCCCc2ccccc2)n1,-5.43
2,Cc1nsc(C(=O)NCCc2ccc(Cl)cc2)n1,2.81
3,Cc1nsc(C(=O)NCCc2ccc(F)cc2)n1,-1.44
4,Cc1nsc(C(=O)NCCc2cccs2)n1,-5.79
5,Cc1nc(N(C)C)nc(C)c1NC(=O)c1ccccc1F,-7.08
6,Cc1cc(C)c(S(=O)(=O)Nc2c(C)nc(N(C)C)nc2C)cc1C,7.13
7,Cc1nc(N(C)C)nc(C)c1NS(=O)(=O)c1ccc(F)cc1F,-2.45
8,Cc1ccc(S(=O)(=O)Nc2c(C)nc(N3CCCC3)nc2C)cc1,-2.23
9,Cc1nc(N2CCOCC2)nc(C)c1NS(=O)(=O)c1ccccc1,-4.03
10,CCS(=O)(=O)NCc1nc(C)cc(N2CCCC2)n1,19.2
11,CCCS(=O)(=O)NCc1nc(C)cc(N2CCCC2)n1,-5.66
12,CCS(=O)(=O)NCc1nc(C)cc(N2CCOCC2)n1,-6.72
13,O=C(Cc1ccc(F)cc1)NCCNc1cc(N2CCCC2)cnn1,30.6
14,CCC(=O)N1CCN(c2cc(N(C)C)cnn2)CC1,-10.5
15,CC(C)C(=O)N1CCN(c2cc(N(C)C)cnn2)CC1,-5.3
16,O=C(c1ccccn1)N1CCN(c2cnnc(N3CCCC3)c2)CC1,-10.9
17,CCOc1ccc(S(=O)(=O)Nc2cnc(OC)nc2OC)cc1,9.83
18,COc1ncc(NS(=O)(=O)c2ccc(F)c(F)c2)c(OC)n1,-1.82
19,CC(C)(C)CC(=O)NCCn1ccc(-c2ccncc2)n1,-15.2
20,CC(=O)NCCn1ccc(-c2ccccn2)n1,-2.73
21,O=C(NCCn1ccc(-c2ccccn2)n1)C1CCC1,1.58
22,O=S(=O)(NCCn1ccc(-c2ccccn2)n1)C1CCCCC1,23.9
23,Cn1nc(CNC(=O)c2ccc3c(c2)OCO3)c2c1CCOC2,5.45

row,SMILES,cytotoxicity at 70.5 h [%]
1,Cn1nc(CNC(=O)c2ccc3nsnc3c2)c2c1CCOC2,-4.6
2,COc1cc(OC)cc(C(=O)NCc2nn(C)c3c2COCC3)c1,0.999
3,O=C(CC1CCC2(CC1)CCN(Cc1nccs1)CC2)N1CC=CC1,-3.04
4,Cc1ccnc(OC[C@]23COC[C@H]2CN(C(=O)C2=CCCCC2)C3)n1,-11.5
5,Cc1ccnc(OC[C@]23COC[C@H]2CN(C(=O)c2ncccn2)C3)n1,21.2
6,Cc1ccnc(OC[C@]23COC[C@H]2CN(C(=O)c2cnccn2)C3)n1,14.9
7,COCc1ncn2c1CN(C(=O)Nc1cccc(OC)c1)CC2,19.8
8,CC(=O)NCC(=O)N1CCC2(COCc3c(C)nc(N(C)C)nc32)C1 (stereo not drawn),-6.64
9,Cc1nc(N(C)C)nc2c1COCC21CCN(C(=O)NCC(C)C)C1 (stereo not drawn),-7.67
10,CN1C(Cn2cccn2)C[C@@H]2CN(Cc3cnn(C)c3)CC[C@@H]21 (stereo partly drawn),-11.7
11,CCOCc1ncn2c1CN(C(=O)Nc1ccccc1)CC2,-15.7
12,CCS(=O)(=O)N1C[C@H]2CN(Cc3cccc(F)c3)C(=O)[C@H]2C1,-3.13
13,CN(C)c1ncc(-c2cc(C(=O)N3CCCC3)n(CC3CC3)c2)cn1,-11
14,CC(C)COCC1CN(Cc2ccoc2)Cc2ncn(C)c21 (stereo not drawn),14
15,CC(C)N(C)Cc1cnc2n1CCN(Cc1cccc(C#N)c1)C2,-13.7
16,Cc1ccc(N2CC[C@H]3OCC[C@@]3(C(=O)N3CCCC3)C2)nn1,-9.8
17,Cc1ccc(N2CC[C@H]3OCC[C@@]3(C(=O)NCC3CC3)C2)nn1,-7.61
18,CCO[C@@H]1CCN(c2ccc(C)nn2)[C@@H]1Cc1cnn(C)c1,-10.9
19,Cc1ccc(CNC2CCc3[nH]c(=O)ccc3C2)cc1C (stereo not drawn),2.24
20,CNC(=O)CN1CC[C@H]2CN(C(=O)c3ccccc3F)C[C@H]2C1,-2.12
21,COCCN1CCC2(CC1)CC(c1cccnc1)CO2 (stereo not drawn),-4.14
22,COCCn1cc2c(n1)C(CNCc1ccsc1)OCC2 (stereo not drawn),-14.8
23,COCC1CC2(CCN(C(=O)c3ccccc3C)CC2)CN1C(C)C (stereo not drawn),19.7

row,SMILES,cytotoxicity at 70.5 h [%]
1,Cc1ccc(CN2CCC3(C2)C(=O)N(CC2CC2)c2ccccc23)s1 (stereo not drawn),-8.57
2,CC(C)CN1C(=O)C2(CCN(Cc3cccs3)C2)c2ccccc21 (stereo not drawn),-16.4
3,CC(C)CN1C(=O)C2(CCN(Cc3ccoc3)C2)c2ccccc21 (stereo not drawn),-14.2
4,CC(C)N(C)Cc1cnc2n1CCN(S(=O)(=O)c1ccccc1)C2,15.9
5,COCC1CC2(CCN(C(=O)c3ccco3)CC2)CN1C(C)C (stereo not drawn),-13
6,CCS(=O)(=O)N1CCO[C@H]2[C@H](Oc3ncccc3F)CC[C@@H]21,-11.9
7,COCCN1C(=O)[C@]2(CC[C@@H]3CN(Cc4ccccc4F)C[C@@H]32)N=C1C,-9.72
8,CC1=N[C@@]2(CC[C@@H]3CN(CC4CC4)C[C@@H]32)C(=O)N1CC1CC1,-13.6
9,CC1=N[C@@]2(CC[C@@H]3CN(Cc4cccc(Cl)c4)C[C@@H]32)C(=O)N1CC1CC1,-14.9
10,CC(=O)N1CC(=O)N(c2ccccc2)CC12CCN(Cc1ccoc1)C2 (stereo not drawn),-14.4
11,CC(C)CN1CC[C@@H]2[C@H](CC1)N(S(C)(=O)=O)CCS2(=O)=O,-11.1
12,CC(=O)N1CC(=O)N(c2cnn(C)c2)CC12CCN(Cc1cccs1)C2 (stereo not drawn),-9.86
13,CC(C)CC(=O)N1CC[C@@H]2[C@H](CC1)N(Cc1cccnc1)CCS2(=O)=O,3.17
14,CC(C)C(=O)N1CC[C@@H]2[C@H](CC1)N(Cc1cccnc1)CCS2(=O)=O,2.07
15,O=C(CC1CCC2(CC1)CCN(Cc1cccnc1)CC2)N1CC=CC1,-8.62
16,Fc1ccc(CN2CCC(F)(F)C3(CCN(c4cnccn4)C3)C2)cc1 (stereo not drawn),-9.88
17,CC(C)N(C)Cc1cnc2n1CCN(C(=O)Cc1ccccn1)C2,13.5
18,Cn1cc(CN2CCC(F)(F)C3(CCN(c4ncccn4)C3)C2)cn1 (stereo not drawn),-12.2
19,CC(C)N(C)Cc1cnc2n1CCN(Cc1cccc(F)c1)C2,-4.8
20,CNC(=O)CN1CCOCC2(CCCN(Cc3ccsc3)C2)C1 (stereo not drawn),-19.5
21,CCN1CCn2c(C)cnc2C12CCN(C(=O)N(C)C)CC2,-9.01
